Results on 26 molecules are retold here after patent publication US9034897B2, “Indanyl-substituted 4,5,6,7-tetrahydro-1H-pyrazolo[4,3-C]pyridines, their use as medicament, and pharmaceutical preparations comprising them” (SANOFI, priority 2011, dated 2015).

The target in this test is Human TASK-1 channels (Homo sapiens (Human), UniProt O14649). Kind of test: Activity on the TASK-1 channel in Xenopus oocytes (two-microelectrode voltage clamp). Format: cell-based. Conditions: for IC50: human TASK-1 expressed in Xenopus oocytes, currents during 500 ms pulses to 40 mV, room temperature; for inhibition at 5 µM: percentage inhibition of TASK-1 control current, Xenopus oocytes. The method, then:
Determination of the activity on the TASK-1 channel in Xenopus oocytes:
Human TASK-1 channels were expressed in Xenopus oocytes. For this purpose, oocytes were isolated from Xenopus laevis and defolliculated. Subsequently, TASK-1-encoding RNA synthesized in vitro was injected into oocytes. After two days of TASK-1 protein expression, TASK-1 currents were measured by two-microelectrode voltage clamp. Data were acquired and analyzed using a TEC-10cx amplifier (NPI Electronic, Tamm, Germany) connected to an ITC-16 interface (Instrutech Corp., Long Island, USA) and Pulse software (HEKA Elektronik, Lambrecht, Germany). Oocytes were clamped to −90 mV and TASK-1 mediated currents were measured during 500 ms voltage pulses to 40 mV. Oocytes were continuously superfused with ND96 buffer containing: NaCl 96 mM, KCl2 mM, CaCl2 1.8 mM, MgCl2 1 mM, HEPES 5 mM (pH adjusted to 7.4 with NaOH). All experiments were performed at room temperature.
Test substances were consecutively added to the bath solution at rising concentrations. Compound effects were calculated as the percentage inhibition of
TASK-1 control current before compound application. IC50 values were obtained by fitting the data to the general dose-response equation.

Chain of Human TASK-1 channels (O14649 whole entry): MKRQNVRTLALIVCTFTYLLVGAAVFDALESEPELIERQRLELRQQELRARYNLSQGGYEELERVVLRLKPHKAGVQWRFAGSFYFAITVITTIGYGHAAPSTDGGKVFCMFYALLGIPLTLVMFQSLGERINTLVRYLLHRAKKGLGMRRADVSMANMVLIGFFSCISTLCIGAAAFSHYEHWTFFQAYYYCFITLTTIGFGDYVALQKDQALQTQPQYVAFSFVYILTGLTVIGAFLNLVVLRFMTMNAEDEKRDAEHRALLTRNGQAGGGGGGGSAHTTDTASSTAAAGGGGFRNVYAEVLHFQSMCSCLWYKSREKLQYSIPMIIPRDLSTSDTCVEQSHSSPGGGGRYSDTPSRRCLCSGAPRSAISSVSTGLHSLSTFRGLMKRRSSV

For `CC(C)C(=O)N1CCc2c(c(-c3cccc(C#N)c3)nn2[C@@H]2c3cc(F)cc(F)c3C[C@H]2O)C1` [Example 14c, 3-[1-((1R,2R)-4,6-Dif1uoro-2-hydroxy-indan-1-yl)-5-isobutyryl-4,5,6,7-tetrahydro-1H-pyrazolo[4,3-c]pyridin-3-yl]-benzonitrile], inhibition was half-maximal at 250 nM (IC50).

For `CC(=O)N1CCc2c(c(-c3cccc(C#N)c3)nn2[C@@H]2c3cc(F)cc(Cl)c3C[C@H]2O)C1` [Example 21a, 3-[5-Acetyl-1-((1R,2R)-4-chloro-6-fluoro-2-hydroxy-indan-1-yl)-4,5,6,7-tetrahydro-1H-pyrazolo[4,3-c]pyridin-3-yl]-benzonitrile], the midpoint of inhibition, the IC50, lay at 393 nM.

`COCCN1CCc2c(c(-c3cccc(C#N)c3)nn2[C@@H]2c3cc(F)cc(F)c3C[C@H]2O)C1` [Example 18d, 3-[1-((1R,2R)-4,6-Difluoro-2-hydroxy-indan-1-yl)-5-(2-methoxy-ethyl)-4,5,6,7-tetrahydro-1H-pyrazolo[4,3-c]pyridin-3-yl]-benzonitrile] yielded an inhibition at 5 µM of 83%.

In turn, `CC(=O)N1CCc2c(c(-c3cccc(C#N)c3)nn2[C@@H]2c3cc(F)cc(F)c3C[C@@]2(C)O)C1` (racemic) [Example 11w, Racemic 3-[5-Acetyl-1-((1R,2R)-4,6-difluoro-2-hydroxy-2-methyl-indan-1-yl)-4,5,6,7-tetrahydro-1H-pyrazolo[4,3-c]pyridin-3-yl]-benzonitrile] registered an IC50 of 1260 nM.

In turn, `CC(=O)N1CCc2c(c(-c3cccc(F)c3)nn2[C@@H]2c3cc(F)cc(F)c3C[C@H]2O)C1` [Example 11aa, 1-[1-((1R,2R)-4,6-Difluoro-2-hydroxy-indan-1-yl)-3-(3-fluoro-phenyl)-1,4,6,7-tetrahydro-pyrazolo[4,3-c]pyridin-5-yl]-ethanone] yielded an IC50 of 2220 nM.

The molecule `COc1cccc(-c2nn([C@@H]3c4cc(F)cc(F)c4C[C@H]3O)c3c2CN(C(C)=O)CC3)c1` [Example 11k, 1-[1-((1R,2R)-4,6-Difluoro-2-hydroxy-indan-1-yl)-3-(3-methoxy-phenyl)-1,4,6,7-tetrahydro-pyrazolo[4,3-c]pyridin-5-yl]-ethanone] registered an IC50 of 442 nM.

In the case of `CC(=O)N1CCc2c(c(-c3cccc(OC(F)(F)F)c3)nn2[C@@H]2c3cc(F)cc(F)c3C[C@H]2O)C1` [Example 11a, 1-[1-((1R,2R)-4,6-Difluoro-2-hydroxy-indan-1-yl)-3-(3-trifluoromethoxy-phenyl)-1,4,6,7-tetrahydro-pyrazolo[4,3-c]pyridin-5-yl]-ethanone], the IC50 came out at 171 nM.

Take `CSc1cc(F)cc2c1C[C@@H](O)[C@@H]2n1nc(-c2cccc(C#N)c2)c2c1CCN(C(C)=O)C2` [Example 21c, 3-[5-Acetyl-1-((1R,2R)-6-fluoro-2-hydroxy-4-methylsulfanyl-indan-1-yl)-4,5,6,7-tetrahydro-1H-pyrazolo[4,3-c]pyridin-3-yl]-benzonitrile]: the inhibition at 5 µM worked out at 87%.

Turning to `CC(=O)N1CCc2c(c(-c3cccc(Cl)c3)nn2[C@@H]2c3cc(F)cc(F)c3C[C@H]2O)C1` [Example 11v, 1-[3-(3-Chloro-phenyl)-1-((1R,2R)-4,6-difluoro-2-hydroxy-indan-1-yl)-1,4,6,7-tetrahydro-pyrazolo[4,3-c]pyridin-5-yl]-ethanone], half-maximal inhibition (IC50) was put at 1180 nM.

In the case of `O[C@@H]1Cc2c(F)cc(F)cc2[C@H]1n1nc(-c2ccc(F)cc2)c2c1CCN(CC1CC1)C2` [Example 18a, (1R,2R)-1-[5-cyclopropylmethyl-3-(4-fluoro-phenyl)-4,5,6,7-tetrahydro-pyrazolo[4,3-c]pyridin-1-yl]-4,6-difluoro-indan-2-ol], half-maximal inhibition (IC50) was put at 500 nM.

In the case of `CC(=O)N1CCc2c(c(-c3cccc(C#N)c3)nn2[C@@H]2c3cc(Cl)cc(Cl)c3C[C@H]2O)C1` [Example 11g, 3-[5-Acetyl-1-((1R,2R)-4,6-dichloro-2-hydroxy-indan-1-yl)-4,5,6,7-tetrahydro-1H-pyrazolo[4,3-c]pyridin-3-yl]-benzonitrile], the IC50 worked out at 350 nM.

`N#Cc1cccc(-c2nn([C@@H]3c4cc(F)cc(F)c4C[C@H]3O)c3c2CN(CC2CC2)CC3)c1` [Example 18e, 3-[5-Cyclopropylmethyl-1-((1R,2R)-4,6-difluoro-2-hydroxy-indan-1-yl)-4,5,6,7-tetrahydro-1H-pyrazolo[4,3-c]pyridin-3-yl]-benzonitrile] showed an inhibition at 5 µM of 81%.

Consider `CC(=O)N1CCc2c(c(-c3ccc(Cl)cc3)nn2[C@@H]2c3cc(F)cc(F)c3C[C@H]2O)C1` [Example 11ab, 1-[3-(4-Chloro-phenyl)-1-((1R,2R)-4,6-difluoro-2-hydroxy-indan-1-yl)-1,4,6,7-tetrahydro-pyrazolo[4,3-c]pyridin-5-yl]-ethanone], for which the half-maximal inhibitory concentration (IC50) amounted to 2970 nM.

For `CO[C@@H]1Cc2c(F)cc(F)cc2[C@H]1n1nc(-c2cccc(C#N)c2)c2c1CCN(C(C)=O)C2` [Example 16a, 3-[5-Acetyl-1-((1R,2R)-4,6-difluoro-2-methoxy-indan-1-yl)-4,5,6,7-tetrahydro-1H-pyrazolo[4,3-c]pyridin-3-yl]-benzonitrile], half-maximal inhibition (IC50) was put at 446 nM.

In the case of `CC(=O)N1CCc2c(c(-c3cccc(C#N)c3)nn2[C@@H]2c3cc(Cl)ccc3C[C@H]2O)C1` [Example 11p, 3-[5-Acetyl-1-((1R,2R)-6-chloro-2-hydroxy-indan-1-yl)-4,5,6,7-tetrahydro-1H-pyrazolo[4,3-c]pyridin-3-yl]-benzonitrile], the 50% inhibitory concentration (IC50) was found to be 685 nM.

In turn, `CC(=O)N1CCc2c(c(-c3ccc(F)cc3)nn2[C@@H]2c3cc(F)cc(F)c3C[C@H]2O)C1` [Example 11l, 1-[1-((1R,2R)-4,6-Difluoro-2-hydroxy-indan-1-yl)-3-(4-fluoro-phenyl)-1,4,6,7-tetrahydro-pyrazolo[4,3-c]pyridin-5-yl]-ethanone] registered an IC50 of 495 nM.

In turn, `CCNC(=O)N1CCc2c(c(-c3cccc(C#N)c3)nn2[C@@H]2c3cc(Cl)cc(Cl)c3C[C@H]2O)C1` [Example 22a, 3-(3-Cyano-phenyl)-1-((1R,2R)-4,6-dichloro-2-hydroxy-indan-1-yl)-1,4,6,7-tetrahydro-pyrazolo[4,3-c]pyridine-5-carboxylic acid ethylamide] showed a 50% inhibitory concentration (IC50) of 180 nM.

For `CC(=O)N1CCc2c(c(-c3ccc(C(F)(F)F)cc3)nn2[C@@H]2c3cc(F)cc(F)c3C[C@H]2O)C1` [Example 11ae, 1-[1-((1R,2R)-4,6-Difluoro-2-hydroxy-indan-1-yl)-3-(4-trifluoromethyl-phenyl)-1,4,6,7-tetrahydro-pyrazolo[4,3-c]pyridin-5-yl]-ethanone], the inhibition at 5 µM is 61%.

Turning to `CS(=O)(=O)N1CCc2c(c(-c3cccc(C#N)c3)nn2[C@@H]2c3cc(Cl)cc(Cl)c3C[C@H]2O)C1` [Example 23a, 3-[1-((1R,2R)-4,6-Dichloro-2-hydroxy-indan-1-yl)-5-methanesulfonyl-4,5,6,7-tetrahydro-1H-pyrazolo[4,3-c]pyridin-3-yl]-benzonitrile], the inhibition at 5 µM was 80%.

In turn, `CC(=O)N1CCc2c(c(-c3ccc(F)cc3)nn2[C@@H]2CCc3ccccc32)C1` [Example 12a, 1-[(R)-3-(4-Fluoro-phenyl)-1-indan-1-yl-1,4,6,7-tetrahydro-pyrazolo[4,3-c]pyridin-5-yl]-ethanone] yielded an IC50 of 712 nM.

`CC(=O)N1CCc2c(c(-c3cccc(C(F)(F)F)c3)nn2[C@@H]2c3cc(F)cc(F)c3C[C@H]2O)C1` [Example 11q, 1-[1-((1R,2R)-4,6-Difluoro-2-hydroxy-indan-1-yl)-3-(3-trifluoromethyl-phenyl)-1,4,6,7-tetrahydro-pyrazolo[4,3-c]pyridin-5-yl]-ethanone] had an IC50 of 773 nM.

Molecule `NC(=O)c1cccc(-c2nn([C@@H]3c4cc(F)cc(F)c4C[C@H]3O)c3c2CN(C(=O)C2CC2)CC3)c1` [Example 15b, 3-[5-Cyclopropanecarbonyl-1-((1R,2R)-4,6-difluoro-2-hydroxy-indan-1-yl)-4,5,6,7-tetrahydro-1H-pyrazolo[4,3-c]pyridin-3-yl]-benzamide] displayed an inhibition at 5 µM of 24%.

As for `CC(=O)N1CCc2c(c(-c3cccc(C(F)(F)F)n3)nn2[C@@H]2c3cc(Cl)cc(Cl)c3C[C@H]2O)C1` [Example 11m, 1-[1-((1R,2R)-4,6-Dichloro-2-hydroxy-indan-1-yl)-3-(6-trifluoromethyl-pyridin-2-yl)-1,4,6,7-tetrahydro-pyrazolo[4,3-c]pyridin-5-yl]-ethanone], the half-maximal inhibitory concentration (IC50) was found to be 518 nM.

The molecule `COC(=O)N1CCc2c(c(-c3cccc(C#N)c3)nn2[C@@H]2c3cc(F)cc(F)c3C[C@H]2O)C1` [Example 17a, 3-(3-Cyano-phenyl)-1-((1R,2R)-4,6-difluoro-2-hydroxy-indan-1-yl)-1,4,6,7-tetrahydro-pyrazolo[4,3-c]pyridine-5-carboxylic acid methyl ester] gave an IC50 of 260 nM.

In the case of `CC(=O)N1CCc2c(c(-c3ccc(F)c(C(F)(F)F)c3)nn2[C@@H]2c3cc(F)cc(F)c3C[C@H]2O)C1` [Example 11f, 1-[1-((1R,2R)-4,6-Difluoro-2-hydroxy-indan-1-yl)-3-(4-fluoro-3-trifluoromethyl-phenyl)-1,4,6,7-tetrahydro-pyrazolo[4,3-c]pyridin-5-yl]-ethanone], the 50% inhibitory concentration (IC50) came to 270 nM.

On to `CC(=O)N1CCc2c(c(-c3cccc(C#N)c3)nn2[C@@H]2c3cc(F)cc(Br)c3C[C@H]2O)C1` [Example 11d, 3-[5-Acetyl-1-((1R,2R)-4-bromo-6-fluoro-2-hydroxy-indan-1-yl)-4,5,6,7-tetrahydro-1H-pyrazolo[4,3-c]pyridin-3-yl]-benzonitrile], for which the IC50 is 226 nM.
